Measured values from ChEMBL document CHEMBL1145001, “Angiotensin II AT1 receptor antagonists. Clinical implications of active metabolites” (J Med Chem, 2003).

Legend:
[1] = Renal clearance value was evaluated; assay type: ADME, organism-based, Kidney; details: in vivo
[2] = Acid dissociation value was evaluated; assay type: ADME
[3] = Half life of compound was determined; assay type: ADME
[4] = Total clearance value was evaluated; assay type: ADME, organism-based; details: in vivo
[5] = target: T1, Type-1 angiotensin II receptor (Homo sapiens) (UniProt P30556); experiment: Inhibition against Angiotensin II receptor, type 1
T1 sequence (whole entry): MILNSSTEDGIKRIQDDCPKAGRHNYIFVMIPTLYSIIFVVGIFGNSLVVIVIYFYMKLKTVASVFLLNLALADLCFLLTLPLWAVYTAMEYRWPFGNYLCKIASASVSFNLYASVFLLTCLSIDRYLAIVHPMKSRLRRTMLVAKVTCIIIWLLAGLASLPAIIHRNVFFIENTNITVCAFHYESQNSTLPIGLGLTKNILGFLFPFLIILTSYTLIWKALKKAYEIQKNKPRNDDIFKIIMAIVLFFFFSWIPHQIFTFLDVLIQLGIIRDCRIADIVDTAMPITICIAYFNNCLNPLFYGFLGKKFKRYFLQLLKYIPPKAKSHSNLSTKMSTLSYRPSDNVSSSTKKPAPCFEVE

[6] = target: T1, Type-1 angiotensin II receptor (Homo sapiens); experiment: Relative binding affinity of compound to Angiotensin II receptor, type 1 was determined
[7] = Absolute bioavailability of compound was determined; assay type: ADME, organism-based; details: in vivo; read-out: Bioavailabiility
[8] = Effective concentration of compound to stimulate 300% increase of growth hormone secretion; assay type: functional
[9] = target: T2, Type-1 angiotensin II receptor (Homo sapiens, UniProt P30556); experiment: Compound was tested for inhibition against Angiotensin II receptor, type 1
T2 sequence (P30556 whole entry): T1 sequence (whole entry)

Phosphodiesterase 3 = Phosphodiesterase 3 (Homo sapiens, UniProt Q14432+Q13370); experiment: Inhibition of phosphodiesterase 3(PDE 3); assay type: protein assay
Phosphodiesterase 4 = Phosphodiesterase 4 (Homo sapiens, UniProt P27815+Q08499+Q07343+Q08493); experiment: Inhibition of phosphodiesterase 4 (PDE 4); assay type: protein assay
[10] = target: T2, Type-1 angiotensin II receptor; experiment: Inhibition constant against Angiotensin II receptor, type 1 was determined
[11] = Inhibition of bovine cAMP phosphodiesterase; parameters: species or system Bos taurus
[12] = Acid dissociation constant was evaluated; assay type: ADME
[13] = Inhibition of calcium calmodulin-dependent cGMP-Phosphodiesterase 1
[14] = Inhibition of Phosphodiesterase 4

Row | SMILES | CL_renal [1] [mL/s] | pKa [2] | half-life [3] [h] | CLtotal [4] [mL/s] | AT1 affinity [5] [nM l-1] | Relative binding affinity [6] | also measured
1 | CCCc1nc2c(C)cc(-c3nc4ccccc4n3C)cc2n1Cc1ccc(-c2ccccc2C(=O)O)cc1 | < 5 | 4.5 | > 20 | 19 | 1 | 10 | bioavailability [7]: 43%
2 | CCCCC(=O)N(Cc1ccc(-c2ccccc2-c2nnn[nH]2)cc1)[C@H](C(=O)O)C(C)C | 4.8 | 3.1 | 6.1 | 37 | 1.4 |  | 
3 | CNC(=O)NCc1ccccc1-c1ccc(CN2C(=O)[C@H](NC(=O)CC(C)(C)N)CCc3ccccc32)cc1 |  |  |  |  |  |  | EC50 [8]: 3 nM
4 | CC(C)(N)CC(=O)N[C@@H]1CCc2ccccc2N(Cc2ccc(-c3ccccc3-c3nn[nH]n3)cc2)C1=O |  |  |  |  |  |  | EC50 [8]: 3 nM
5 | Cc1nc(C(=O)O)nc2c1CCC(=O)N2Cc1ccc(-c2ccccc2-c2nnn[nH]2)cc1 |  |  |  |  |  |  | IC50 [9]: 11 nM
6 | CCCCc1nc(SCc2ccc(-c3ccccc3-c3nn[nH]n3)cc2)c2ccccc2n1 |  |  |  |  |  |  | IC50 (Phosphodiesterase 3): 8000 nM; IC50 (Phosphodiesterase 4): 2900 nM
7 | O=C(O)c1nc(CO)nc2c1CCC(=O)N2Cc1ccc(-c2ccccc2-c2nn[nH]n2)cc1 |  |  |  |  |  |  | IC50 [9]: 44 nM
8 | CC(O)CCC(=O)N(c1ccc(-c2ccccc2-c2nnn[nH]2)cc1)[C@H](C(=O)O)C(C)C (stereo partly drawn) |  |  |  |  |  |  | Ki [10]: 370 nM; IC50 [9]: 470 nM
9 | CCOc1nc2cccc(C(=O)OC(C)OC(=O)OC3CCCCC3)c2n1Cc1ccc(-c2ccccc2-c2nn[nH]n2)cc1 (stereo not drawn) |  |  |  |  |  |  | AT1 affinity [6]: 280
10 | Cc1nc(C)c2c(O)cc(=O)n(Cc3ccc(-c4ccccc4-c4nnn[nH]4)cc3)c2n1 [ENOLTASOSARTAN] |  |  |  |  |  |  | pKa [12]: 9.4; IC50 [9]: 0.17 nM
11 | CCCCc1ncc(/C=C(\Cc2cccs2)C(=O)O)n1Cc1ccc(C(=O)O)cc1 [EPROSARTAN] | 0.6 | 4 | 5 | 2.5 | 1.5 | 100 | 
12 | CCCCC1=NC2(CCCC2)C(=O)N1Cc1ccc(-c2ccccc2-c2nnn[nH]2)cc1 [IRBESARTAN] | 0.02 | 4.7 | 10 | 5.1 | 1.3 |  | 
13 | Cc1nc(C)c2c(n1)N(Cc1ccc(-c3ccccc3-c3nnn[nH]3)cc1)C(=O)CC2 [TASOSARTAN] |  | 4 | 11 |  | 1.2 | 20 | IC50 [9]: 32 nM

Further lines, with some results ahead:

Row | CL_renal [1] [mL/s] | pKa [2] | half-life [3] [h] | CLtotal [4] [mL/s] | AT1 affinity [5] [nM l-1] | Relative binding affinity [6] | SMILES | also measured
14 | > 7 | 3.9 | > 9 | 1 | 0.1 | 1 | CCOc1nc2cccc(C(=O)O)c2n1Cc1ccc(-c2ccccc2-c2nnn[nH]2)cc1 | 
15 |  | 4 |  |  | 20 |  | CCCCc1nc(Cl)c(C=O)n1Cc1ccc(-c2ccccc2-c2nn[nH]n2)cc1 | 
16 | 0.4 | 2.8 | 4.4 | 0.78 | 1.3 | 10 | CCCCc1nc(Cl)c(C(=O)O)n1Cc1ccc(-c2ccccc2-c2nn[nH]n2)cc1 [CARBOXYLIC ACID METABOLITE] | IC50 [11]: 38900 nM
17 |  | 4.9 |  |  |  |  | CCCCc1nc(Cl)c(CO)n1Cc1ccc(-c2ccccc2-c2nn[nH]n2)cc1 [LOSARTAN POTASSIUM] | 
18 | 1.1 |  | 1.5 | 10 | 6.4 | 50 | CCCCc1nc(Cl)c(CO)n1Cc1ccc(-c2ccccc2-c2nnn[n-]2)cc1.[K+] [LOSARTAN POTASSIUM] | IC50 [13]: 100000 nM; IC50 [14]: 26000 nM; IC50 [11]: 139000 nM
